We go through five molecules from patent publication US20060058329A1, “Pyrazole inhibitors of the transforming growth factor” (priority 2003, published 2006).

The target in series [1] is T1, recombinant GST-ALK5 (residues 198-503) (Homo sapiens, UniProt P36897).
T1 construct: recombinant GST-ALK5 (residues 198-503)
T1 sequence (P36897 198-503): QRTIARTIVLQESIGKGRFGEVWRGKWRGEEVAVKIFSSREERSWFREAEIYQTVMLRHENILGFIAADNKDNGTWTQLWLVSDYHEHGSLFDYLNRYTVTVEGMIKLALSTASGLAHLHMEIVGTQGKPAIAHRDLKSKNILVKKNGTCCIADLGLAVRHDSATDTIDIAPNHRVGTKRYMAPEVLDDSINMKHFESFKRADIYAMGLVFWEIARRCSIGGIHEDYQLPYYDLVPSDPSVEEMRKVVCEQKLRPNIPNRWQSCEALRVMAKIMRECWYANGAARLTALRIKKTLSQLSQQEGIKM
Nature of the series: Alk5 fluorescence polarization assay. Format: binding. The conditions noted are these: rhodamine green-labelled ligand 1 nM, ALK5 10 nM, read-out: ALK5 receptor modulator activity (IC50). On the procedure:
Assay 2 (Alk5 Fluorescence Polarization Assay)
Kinase inhibitor compounds conjugated to fluorophores, can be used as fluorescent ligands to monitor ATP competitive binding of other compounds to a given kinase. The increase in depolarization of plane polarized light, caused by release of the bound ligand into solution, is measured as a polarization/anisotropy value. This protocol details the use of a rhodamine green-labelled ligand for assays using recombinant GST-ALK5 (residues 198-503).
Assay buffer components: 62.5 mM Hepes pH 7.5 (Sigma H-4034), 1 mM DTT (Sigma D-0632), 12.5 mM MgCl2 (Sigma M-9272), 1.25 mM CHAPS (Sigma C-3023). […]
ALK5 was added to assay buffer containing the above components and 1 nM of the rhodamine green-labelled ligand so that the final ALK5 concentration was 10 nM based on active site titration of the enzyme. […] The plates were read immediately on a LJL Acquest fluorescence reader (Molecular Devices, serial number AQ1048) with excitation, emission, and dichroic filters of 485 nm, 530 nm, and 505 nm, respectively. The fluorescence polarization for each well was calculated by the Acquest reader and then imported into curve fitting software for construction of concentration response curves. The normalized response was determined relative to the high controls (1 μl DMSO in column 12, rows A-D) and the low controls (1 μl of control compound in column 12, rows E-H). […]

Series [2] deals with TGF-β signalling (PAI-1 promoter-luciferase in HepG2 cells). Nature of the series: Cellular transcriptional assay (PAI-1 promoter luciferase reporter, TGF-β stimulated). Conditions: for IC50: Homo sapiens, HepG2, read-out: TGF-β cellular activity (IC50).
Description: Assay 1 (Cellular Transcriptional Assay)
The assay was performed in HepG2 cells stably transfected with the PAI-1 promoter (known to be a strong TGF-β responsive promoter) linked to a luciferase (firefly) reporter gene. The compounds were selected on their ability to inhibit luciferase activity in cells exposed to TGF-β. In addition, cells were transfected with a second luciferase (Renilla) gene which was not driven by a TGF-β responsive promoter and was used as a toxicity control.
96 well microplates were seeded, using a multidrop apparatus, with the stably transfected cell line at a concentration of 35000 cells per well in 200 μl of serum-containing medium. These plates were placed in a cell incubator.
18 to 24 hours later (Day 2), cell-incubation procedure was launched. Cells were incubated with TGF-β and a candidate compound at concentrations in the range 50 nM to 10 μM (final concentration of DMSO 1%). The final concentration of TGF-β (rhTGFβ-1) used in the test was 1 ng/mL. […] The final volume of the test reaction was 150 μl. Each well contained only one candidate compound and its effect on the PAI-1 promoter was monitored.
Columns 11 and 12 were employed as controls. Column 11 contained 8 wells in which the cells were incubated in the presence of TGF-β, without a candidate compound. Column 11 was used to determine the ‘reference TGF-β induced firefly luciferase value’ against which values measured in the test wells (to quantify inhibitory activity) were compared. In wells A12 to D12, cells were grown in medium without TGF-β. […]
12 to 18 hours later (day 3), the luciferase quantification procedure was launched. […] Following agitation (15 to 30 mins), luciferase activities of the plates were read in a dual-injector luminometer (BMG lumistar). For this purpose, 50 μl of luciferase assay reagent and 50 μL of ‘Stop & Glo’ buffer were injected sequentially to quantify the activities of both luciferases. […] For each of the compounds tested, a concentration response curve was constructed from which an IC50 value was determined graphically.

As for `Cc1cccc(-c2cn[nH]c2-c2ccnc(-c3ccc(OCCN4CCCC4)cc3)c2)n1` [Example 22, 3-[2-(4-(2-(pyrolidin-1-yl)ethoxy)phenyl)pyridin-4-yl]-4-[6-methylpyridin-2-yl]-1H-pyrazole], the melting point was 96 °C. Also, the IC50 in series [1] was 0.017 µM. Besides, in series [2], the IC50 is 0.038 µM.
The molecule `CCN1CCN(C(=O)c2ccc(-c3cc(-c4[nH]ncc4-c4cccc(C)n4)ccn3)cc2)CC1` [Example 19, 3-[2-(4-((1-ethyl-piperazin-4-yl)carbonyl)phenyl)pyridin-4-yl]-4-[6-methylpyridin-2-yl]-1H-pyrazole] yielded a melting point of 126 °C.
`O=C1C=CCC1` [CPO, Cyclopentenone, reference compound]: the “firefly and renilla luciferase activities, relative to those obtained in column 11 (TGF-β only)” value in series [2] (500 μM CPO in the presence of TGF-β, toxicity control) is on record as “around 50%”.
Regarding `Cc1cccc(-c2n[nH]cc2-c2ccnc(-c3ccc(OCc4cn(C)cn4)cc3)c2)n1` [Example 1, 2-{4-[(1-methyl-1H-imidazol-4-yl)methoxy]phenyl}-4-[3-(6-methylpyridin-2-yl)-1H-pyrazol-4-yl]pyridine], the IC50 in series [1] was 0.005 µM; in series [2], 0.034 µM.
Molecule `Cc1cccc(-c2cn[nH]c2-c2ccnc(-c3ccc(OCC(=O)N4CCOCC4)cc3)c2)n1` [Example 23, 3-[2-(4-((morpholin-4-yl)carbonylmethyloxy)phenyl)pyridin-4-yl]-4-[6-methylpyridin-2-yl]-1H-pyrazole] showed a melting point of 170 °C.
